Assay [1] deals with HCV replication, genotype 1a (Huh-7 HCV replicon cell). Kind of assay: Replicon ELISA cell based assay, genotype 1a. Particulars: Hepatitis C virus, Huh-7 HCV replicon cells, 72 hours, mean, assayed at least twice. Here is the method:
(§1) Replicon ELISA Cell Based Assay
(§2) 100 μL of medium containing 10% FCS were added to each well of clear, flat-bottomed 96 well microplates, excepting wells in the top row. Test compound was diluted in assay medium to twice the final required starting concentration from a 40 mM stock solution in DMSO. 200 μL of the starting dilution were introduced into two wells each in the top row and doubling dilutions made down the plate by the sequential transfer of 100 μL aliquots with thorough mixing in the wells; the final 100 μL were discarded. The two bottom rows were not used for compound dilutions. Huh-7 HCV replicon cell monolayers nearing confluency were stripped from growth flasks with versene-trypsin solution and the cells were resuspended in assay medium at either 2×10^5 cells/mL (sub-line 5-15; genotype 1b; Lohmann, V., Korner, F., Koch, J-O., Herian, U., Thielmann, L. and Bartenschlager, R., Science, 1999, 285, 110-113) or at 3×10^5 cells/mL (genotype 1a; Gu, B., Gates, A. T., Isken, O., Behrens, S. E. and Sarisky, R. T., J. Virol., 2003, 77, 5352-5359). 100 μL of cell suspension were added to all wells and the plates incubated at 37° C. for 72 hours in a 5% CO2 atmosphere.
(§3) Following incubation, the assay medium was aspirated from the plates. The cell sheets were washed by gentle immersion in phosphate buffered saline (PBS), which was then aspirated off, and fixed with acetone:methanol (1:1) for 5 minutes. Following a further wash with PBS, 100 μL of ELISA diluent (PBS+0.05% v/v Tween 20+2% w/v skimmed milk powder) were added to all wells and the plates incubated at 37° C. for 30 minutes on an orbital platform. The diluent was removed and each well then received 50 μL of a 1/200 dilution of anti-HCV specific, murine, monoclonal antibody (either Virostat #1872 or #1877), except for wells in one of the compound-free control rows which received diluent alone to act as negative controls. The plates were incubated at 37° C. for 2 hours and washed 3 times with PBS/0.05% Tween 20, then 50 μL of horseradish peroxidase conjugated, anti-mouse, rabbit polyclonal serum (Dako #P0260), diluted 1/1000, were added to all wells. The plates were incubated for a further hour, the antibody removed and the cell sheets washed 5 times with PBS/Tween and blotted dry. The assay was developed by the addition of 50 μL of ortho-phenylenediamine/peroxidase substrate in urea/citrate buffer (SigmaFast, Sigma #P-9187) to each well, and colour allowed to develop for up to 15 minutes. The reaction was stopped by the addition of 25 μL per well of 2 M sulphuric acid and the plates were read at 490 nm on a Fluostar Optima spectrophotometer.
(§4) The substrate solution was removed and the plates were washed in tap water, blotted dry and the cells stained with 5% carbol fuchsin in water for 30 minutes. The stain was discarded and the cell sheets washed, dried and examined microscopically to assess cytotoxicity.
(§5) The absorbance values from all compound-free wells that had received both primary and secondary antibodies were averaged to obtain a positive control value. The mean absorbance value from the compound-free wells that had not received the primary antibody was used to provide the negative (background) control value. The readings from the duplicate wells at each compound concentration were averaged and, after the subtraction of the mean background from all values, were expressed as a percentage of the positive control signal. The quantifiable and specific reduction of expressed protein detected by the ELISA in the presence of a drug can be used as a measure of replicon inhibition. GraFit software (Erithacus Software Ltd.) was used to plot the curve of percentage inhibition against compound concentration and derive the 50% inhibitory concentration (IC50) for the compound.
Background: A replicon is a self-replicating genome or part of one, used to study replication in cells.

The subject of assay [2] is HCV replication, genotype 1b (Huh-7 HCV replicon cell, sub-line 5-15). Kind of assay: Replicon ELISA cell based assay, genotype 1b. Particulars: Hepatitis C virus, Huh-7 HCV replicon cells, genotype 1b (sub-line 5-15), 72 hours, mean, assayed at least twice. Here is the method: as §1, §2, §3, §4, §5

The IC50 is the midpoint of a concentration-inhibition curve. Lower therefore signals greater potency.

A value given as a limit tells only on which side of the number the result lay.

On to `CC(C)N(c1cc(-c2ccc(-c3ccc(Cl)cc3)cc2)sc1C(=O)O)C(=O)[C@H]1CC[C@H](C)CC1` [Compound C, 5-(4′-Chloro-4-biphenylyl)-3-[[(trans-4-methylcyclohexyl)carbonyl](1-methylethyl)amino]-2-thiophenecarboxylic acid, reference compound], for which the IC50 is 1000 to 5000 nM in assay [1] and greater than 5000 nM in assay [2].

For `CC(C)N(c1cc(-c2ccc(-c3cn4ccsc4n3)nc2)sc1C(=O)O)C(=O)[C@H]1CC[C@H](C)CC1` [Example 32, 5-(6-Imidazo[2,1-b][1,3]thiazol-6-yl-3-pyridinyl)-3-[[(trans-4-methylcyclohexyl)carbonyl](1-methylethyl)amino]-2-thiophenecarboxylic acid], the results for the IC50 in assay [1] and in assay [2] were 100 to 500 nM and 50 to 100 nM, respectively.

As for `CC(C)N(c1cc(-c2ccc(-c3nc4cccc(O)c4o3)cc2)sc1C(=O)O)C(=O)[C@H]1CC[C@H](C)CC1` [Example 20, 5-[4-(7-Hydroxy-1,3-benzoxazol-2-yl)phenyl]-3-[[(trans-4-methylcyclohexyl)carbonyl](1-methylethyl)amino]-2-thiophenecarboxylic acid], the IC50 in assay [1] lay within 100 to 500 nM; in assay [2], 10 to 50 nM.

As for `CC(C)N(c1cc(-c2ccc(-c3cnc4occc4c3)cc2)sc1C(=O)O)C(=O)[C@H]1CC[C@H](C)CC1` [Example 9, 5-(4-Furo[2,3-b]pyridin-5-ylphenyl)-3-[[(trans-4-methylcyclohexyl)carbonyl](1-methylethyl)amino]-2-thiophenecarboxylic acid], the IC50 in assay [1] lay within 100 to 500 nM; in assay [2] it was 50 to 100 nM.

With `CC(C)N(c1cc(-c2ccc(-c3cc4ncccc4o3)nc2)sc1C(=O)O)C(=O)[C@H]1CC[C@H](C)CC1` [Example 18, 5-(6-Furo[3,2-b]pyridin-2-yl-3-pyridinyl)-3-[[(trans-4-methylcyclohexyl)carbonyl](1-methylethyl)amino]-2-thiophenecarboxylic acid], the IC50 in assay [1] was in the range of 50 to 100 nM; in assay [2] it was 10 to 50 nM.

Consider `CC(C)N(c1cc(-c2ccc(-c3cc4cnccc4o3)cc2)sc1C(=O)O)C(=O)[C@H]1CC[C@H](C)CC1` [Example 12, 5-(4-Furo[3,2-c]pyridin-2-ylphenyl)-3-[[(trans-4-methylcyclohexyl)carbonyl](1-methylethyl)amino]-2-thiophenecarboxylic acid], for which the IC50 in assay [1] was in the range of 100 to 500 nM; in assay [2], 50 to 100 nM.

Turning to `CC(C)N(c1cc(-c2ccc(-c3cn4ccccc4n3)cc2)sc1C(=O)O)C(=O)[C@H]1CC[C@H](C(F)(F)F)CC1` [Example 14, 5-(4-Imidazo[1,2-a]pyridin-2-ylphenyl)-3-((1-methylethyl){[trans-4-(trifluoromethyl)cyclohexyl]carbonyl}amino)-2-thiophenecarboxylic acid], the IC50 lay in the range of 100 to 500 nM in assay [1] and 500 to 1000 nM in assay [2].

On to `CC(C)N(c1cc(-c2ccc(-c3nc4ncccc4o3)cc2)sc1C(=O)O)C(=O)[C@H]1CC[C@H](C(F)(F)F)CC1` [Example 25, 3-((1-Methylethyl){[trans-4-(trifluoromethyl)cyclohexyl]carbonyl}amino)-5-(4-[1,3]oxazolo[4,5-b]pyridin-2-ylphenyl)-2-thiophenecarboxylic acid], for which the IC50 in assay [1] and in assay [2] was 100 to 500 nM each time.

As for `CC(C)N(c1cc(-c2ccc(-c3nc4c(N)cccc4o3)cc2)sc1C(=O)O)C(=O)[C@H]1CC[C@H](C)CC1` [Example 16, 5-[4-(4-Amino-1,3-benzoxazol-2-yl)phenyl]-3-[[(trans-4-methylcyclohexyl)carbonyl](1-methylethyl)amino]-2-thiophenecarboxylic acid], the IC50 in assay [1] and in assay [2] was 10 to 50 nM throughout.

As to `CC(C)N(c1cc(-c2ccc(-c3cc4nccc(N)n4n3)cc2)sc1C(=O)O)C(=O)[C@H]1CC[C@H](C)CC1` [Example 7, 5-[4-(7-Aminopyrazolo[1,5-a]pyrimidin-2-yl)phenyl]-3-[[(trans-4-methylcyclohexyl)carbonyl](1-methylethyl)amino]-2-thiophenecarboxylic acid], the IC50 in assay [1] and in assay [2] was less than 5 nM in each case.

As to `CC(C)N(c1cc(-c2ccc(-c3cc4cnccc4o3)cc2)sc1C(=O)O)C(=O)[C@H]1CC[C@H](C)CC1` [Example 13, Sodium 5-(4-furo[3,2-c]pyridin-2-ylphenyl)-3-[[(trans-4-methylcyclohexyl)carbonyl](1-methylethyl)amino]-2-thiophenecarboxylate], the IC50 in assay [1] and in assay [2] was 100 to 500 nM in each case.

(Values after patent US20090136448A1, “Antiviral 2-Carboxy-Thiophene Compounds” (priority 2005, published 2009).)
